The text below walks through data of patent US20260355177A1, “TREATMENT FOR APLASTIC ANEMIA (AA)” (ZYDUS LIFESCIENCES LIMITED, priority 2022, published 2026).

Experiment [1] relates to busulphan-induced aplastic anemia in Balb/c mice. Nature of the experiment: Busulphan-induced aplastic anemia in Balb/c mice: white blood cell (WBC) and platelet count. The experiment is classed as in vivo. The note with it: after 44 days of treatment; Formula (Ia) 15 mg/kg PO daily; Romiplostim 50 μg/kg SC once a week; mean±SEM, n=6. On the procedure: Aplastic anemia (AA) was induced in BALB/c mice by administration of busulphan (BU). BU was dissolved in acetone at concentrations of 5-10 mg/mL. Immediately before administration, deionized water was added to the BU-acetone solution and the solution was given by intraperitoneal (ip) injection at dose of 9 mg/kg. Control mice were given vehicle at the same dose volume.^9 Compound of formula (Ia) (15 mg/kg, PO, daily) and Romiplostim (50 μg/kg, SC, once a week) combination were administered.
Mice were be dosed with vehicle or BU on 10 occasions over a period of 21 days (days 1, 3, 6, 8, 10, 13, 15, 17, 19 and 21). Between 1 to 127 days after the final BU dose, mice from each group were autopsied for blood.^9
The changes in the white blood cell (WBC) and platelet count were measured after 44 days of treatment. Data are mean±SEM (n=6 for each group).

Experiment [2] deals with cyclophosphamide-induced aplastic anemia in C57 mice. The experiment in a line: Cyclophosphamide-induced aplastic anemia in C57 mice: white blood cell (WBC) and platelet count. The note with it: after 11 days of treatment; Formula (Ia) 15 mg/kg PO daily; Romiplostim 30 μg/kg SC once a week; mean±SEM, n=6. The experiment is classed as in vivo. On the procedure: Aplastic anemia (AA) was induced in C57 mice by administration of cyclophosphamide. Cyclophosphamide was dissolved in deionized water at concentrations of 20 mg/mL. Immediately before administration, deionized water was added to the stock solution and the solution was given by intraperitoneal (ip) injection at dose of 100 mg/kg. Mice were dosed with vehicle or cyclophosphamide for 4 days. Control mice were given vehicle at the same dose volume.^10 Compound of formula (Ia) (15 mg/kg, PO, daily) and Romiplostim (30 μg/kg, SC, once a week) combination were administered.
Blood was collected from each group after 11 days of treatment. The changes in the white blood cell (WBC) and platelet count were measured. Data are mean±SEM (n=6 for each group).

Turning to Romiplostim, in experiment [1], the Platelets is on record as 1257.0 10^3/uL, the “Platelets % Change against vehicle control” value (“Platelets % Change” for short) turned out to be 142.7%, the WBC is reported as 4.2 10^3/uL and the “WBC % Change against vehicle control” value is 79.3%.
For `O=C(O)CNC(=O)c1c(O)c2ccccc2n(OCC2CC2)c1=O` [Formula (Ia)], in experiment [1], the Platelets is given as 676.2 10^3/uL, the “Platelets % Change” value was determined as 30.6%, the WBC is listed as 2.6 10^3/uL and the “WBC % Change against vehicle control” value was 10.9%. Moreover, in experiment [2], the Platelets was 742.3 10^3/uL, the “Platelets % Change” value amounted to 32.1%, the WBC is listed as 7.0 10^3/uL and the “WBC % Change against vehicle control” value was determined as 10.1%.
